Measurements published in patent publication US7223733B2, “Modulation of TRIP-Br function and method of treating proliferative disorders” (National University of Singapore, priority 2004, dated 2007).
Where no end group is shown, it is not given here. [invdT] = inverted (3'-3') thymidine

Legend:
[1] = system: WI-38 cells; test: BrdU incorporation, serum-induced S phase entry of WI-38 cells; assay type: cell-based, human; conditions: WI-38, 0.1 μM, 20 h; compared to unstimulated cells
Procedure: DNA enzyme transfection. WI-38 cells were rendered quiescent by cultivation in serum-free medium for 72 h before being transfected with DNA enzyme (0.1 μM) using Superfect as reported previously (Santiago, F. S., et al. Nat Med 5, 1264-1269 (1999)) in accordance to manufacturer's recommendations (Qiagen).
Cell proliferation assays. For the BrdU incorporation assays, growth-quiescent WI-38 cells in 96-well dishes were transfected with DNA enzyme and/or 100 ng of pCMV/E2F1, pCMV/DP1, pRSV/Cyclin E, or pCMV/Cdk2 and then exposed to Bromodeoxyuridine (BrdU, 100 μM) in the presence or absence of 10% FBS for 20 h. Bromodeoxyuridine (BrdU) incorporation was monitored with a calorimetric ELISA assay using a cell proliferation kit according to manufacturer's recommendations (Boehringer Mannheim). For manual cell count, growth-quiescent WI-38 cells in 24-well dishes were transfected with DNA enzyme and then exposed to 10% FBS for 72 h. The cells were rinsed with PBS, pH 7.4, and trypsinized, and 10 μl of cell suspension was taken from each sample and mixed with equal volume of trypan blue stain (Sigma, 0.4% w/v in 1×PBS). The number of unstained cells was enumerated manually using a hemocytometer. For colony formation assays, growth-quiescent WI-38 cells in 12-well dishes were transfected with DNA enzyme and then exposed to 10% FBS for 120 h. Cells were stained in situ with crystal violet (0.75% w/v hexamethyl-p-rosaniline chloride [SIGMA], 50% ethanol, 1.75% w/v paraformaldehyde, 0.25% w/v NaCl) for 10 min, and then rinsed thoroughly with deionized water to remove excess stains.
FIG. 13: (A) E-Br1 or E-Br2 suppresses serum-inducible S phase entry. Sub-confluent WI-38 cells were serum-starved for 72 h. Following DNA enzyme transfection, the cultures were re-stimulated with serum and allowed to proliferate in BrdU labeling medium. After 20 h, cells were assayed for BrdU incorporation with a colorimetric ELISA assay. Values represent the average of at least two independent experiments. […] Sub-confluent WI-38 cells were serum-starved for 72 h. […]

[2] = system: Fbxw7 mRNA; test: Semi-quantitative RT-PCR of Fbxw7 in U2OS cells; assay type: cell-based, human; conditions: U2OS, 5, 10 or 20 μM
Procedure: Semi-quantitative RT-PCR. Total RNA was isolated from U2OS cells or U2OS-ER-E2F-1 cells (grown with or without 1.0 μM OHT and/or 10 μg/ml cycloheximide) using the TRIZOL® Reagent (Life Technologies). Total RNA (4 μg) was reverse transcribed using oligo-dT and M-MLV reverse transcriptase in a total reaction volume of 20 μl. Polymerase Chain Reactions (PCR) were carried out on 3 μl cDNA samples in the presence of […] deoxyribonucleotide triphosphates (dNTPs) and 40 μM of specific primer pairs in a total reaction volume of 50 μ. The cycling profile for PCR was as follow: 30 cycles of denaturation (94° C., 30 sec), annealing (51° C., 30 sec) and extension (72° C., 2 min), with a 2-minute initial denaturation step at 94° C. and a 10-minute terminal polishing step at 72° C. Sequences of gene-specific primers are available upon request. PCR amplification products were analyzed by agarose gel electrophoresis.
FIG. 8: The role(s) of the TRIP-Br integrator function in cyclin E regulation. […] U2OS cells exposed to 5, 10 or 20 μM of decoy peptides were analyzed for Fbxw7 mRNA transcript levels by semi-quantitative RT-PCR. H-actin was co-amplified as an internal control; (C) cyclin-E and Fbxw7 expression was analyzed by semi-quantitative RT-PCR using total RNA from sub-confluent U2OS ER-E2F-1 cells grown with or without OHT and/or cycloheximide (CHX) for 2 h as indicated. […]

[3] = system: CNE2 tumor; test: Chick embryo chorioallantoic membrane (CAM) tumor xenograft model; assay type: in vivo; conditions: 50 μM topically, daily; p<0.05
From the text: Cell lines. Human nasopharyngeal cancer cell line CNE2 and human melanoma cell line Mewo were used for tumor inoculation.
Chicken embryo CAM preparation. To apply cells onto the CAM of 10-day old chick embryos, a 2-cm diameter wide window was opened in the flat pole of the eggshell with an electric drill equipped with a 0.3-mm thick×22-mm diameter Carborundum disc. The shell window was removed with forceps. The inner shell membrane was carefully punctured with a fine sterile forcep and removed to expose the underlying CAM. A small portion of the CAM was then gently traumatized by laying a strip of lens tissue (1-cm wide) on the surface of the CAM and then removing it immediately.
Inoculation, closure & incubation. The inoculum (1×10^6 cells/egg for CNE2 cell line and 3×10^6 cells/egg for Mewo cell line in 50 μl of blank medium) was applied onto the small patch of traumatized CAM. Following inoculation, the window was covered with a 35 mm tissue culture dish and sealed with scotch tape. The embryos were returned to the incubator in an upright position and allowed to incubate for seven additional days, with daily monitoring.
Peptide treatment & assessment of growth inhibitory effects. The treatment was initiated two days after tumor inoculation.
The eggs were randomized into 4 treatment groups, with each group comprising at least 4 biological replicates. […]

| Substance | BrdU incorporation on serum stimulation [1] | expression level of Fbxw7 mRNA [2] | growth of CNE2 tumor (tumour weight) [3] |
| --- | --- | --- | --- |
| 5′-T TGCTCAGCAGGCTAGCTACAACGACTTGCTCA-3′ (DNA TTGCTCAGCAGGCTAGCTACAACGACTTGCTCA; DNA, 3' [invdT], backbone not given here) [E-Br1] | significantly inhibited | – | – |
| ERQIKIWFQNRRMKWKKATGCLLDDGLEGLFEDID (ERQIKIWFQNRRMKWKKATGCLLDDGLEGLFEDID-NH2) [*Br1] | – | down-regulated the expression level of Fbxw7 in a dose-dependent fashion | significantly inhibited the growth of CNE2 tumor |
| ERQIKIWFQNRRMKWKKTGFLTDLTLDDILFADID (ERQIKIWFQNRRMKWKKTGFLTDLTLDDILFADID-NH2) [*Br2] | – | down-regulated the expression level of Fbxw7 in a dose-dependent fashion | significantly inhibited the growth of CNE2 tumor |
| 5′-T TACCCAACAGGCTAGCTACAACGAATATCACA-3′ (DNA TTACCCAACAGGCTAGCTACAACGAATATCACA; DNA, 3' [invdT], backbone not given here) [E-Br2] | significantly inhibited | – | – |
